From US20210100760A1 (Strongbridge Dublin Limited, priority 2019, published 2021)
Where two headings read alike, the source gives them in different places.

Experiments:
[1] = low plasma concentrations (1.0 to 2.0 mg/100 mL); cited from earlier work
[2] = target: T1, OAT3 (Homo sapiens, UniProt Q8TCC7); test: OAT3 substrate determination in HEK293 cells; format: in vitro ADME; conditions: for Uptake ratio: OAT3 vs control cells; for Uptake (Average ± SD), OAT3: OAT3-expressing HEK293 cells; for recovery at 10 μM: human
T1 sequence (Q8TCC7 1-542): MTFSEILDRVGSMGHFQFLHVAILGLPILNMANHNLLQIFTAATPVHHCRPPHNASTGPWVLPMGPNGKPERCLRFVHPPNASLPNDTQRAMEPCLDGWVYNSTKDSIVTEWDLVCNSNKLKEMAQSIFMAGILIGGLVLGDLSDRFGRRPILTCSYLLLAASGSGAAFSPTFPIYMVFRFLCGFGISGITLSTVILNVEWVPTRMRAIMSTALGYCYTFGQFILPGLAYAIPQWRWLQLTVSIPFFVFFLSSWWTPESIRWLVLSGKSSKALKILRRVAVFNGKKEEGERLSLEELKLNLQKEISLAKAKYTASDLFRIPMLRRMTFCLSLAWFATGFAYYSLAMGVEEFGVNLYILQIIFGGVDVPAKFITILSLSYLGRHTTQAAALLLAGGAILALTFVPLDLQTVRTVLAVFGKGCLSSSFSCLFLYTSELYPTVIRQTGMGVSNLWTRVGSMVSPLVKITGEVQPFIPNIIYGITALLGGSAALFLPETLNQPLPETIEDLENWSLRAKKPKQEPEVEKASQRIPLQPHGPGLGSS

[3] = target: T2, OAT1 (Homo sapiens, UniProt Q4U2R8); test: OAT1 substrate determination in HEK293 cells; format: in vitro ADME; conditions: for Uptake ratio: OAT1 vs control cells; for Uptake (Average ± SD), OAT1: OAT1-expressing HEK293 cells; for recovery at 10 μM: human
T2 sequence (Q4U2R8 1-563): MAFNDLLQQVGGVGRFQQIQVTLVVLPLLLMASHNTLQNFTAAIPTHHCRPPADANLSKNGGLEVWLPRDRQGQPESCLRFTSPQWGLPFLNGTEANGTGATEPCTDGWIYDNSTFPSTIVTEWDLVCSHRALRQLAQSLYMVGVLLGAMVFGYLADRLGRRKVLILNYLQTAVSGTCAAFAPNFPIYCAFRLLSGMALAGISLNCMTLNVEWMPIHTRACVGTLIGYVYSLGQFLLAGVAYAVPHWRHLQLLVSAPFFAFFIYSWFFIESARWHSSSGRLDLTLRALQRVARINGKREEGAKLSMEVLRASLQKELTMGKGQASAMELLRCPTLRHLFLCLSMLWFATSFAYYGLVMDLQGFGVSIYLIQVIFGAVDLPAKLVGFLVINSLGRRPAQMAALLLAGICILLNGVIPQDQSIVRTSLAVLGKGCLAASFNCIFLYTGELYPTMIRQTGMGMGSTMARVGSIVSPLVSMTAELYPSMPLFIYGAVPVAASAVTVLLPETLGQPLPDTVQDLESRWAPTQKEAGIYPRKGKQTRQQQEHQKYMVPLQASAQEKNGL

[4] = target: T1, OAT3; test: OAT3 positive-control inhibition, [3H]-Estrone-3-sulfate probe substrate uptake in HEK293 cells; format: in vitro ADME; conditions: [3H]-Estrone-3-sulfate (50 nM) probe, inhibitor 100 μM
[5] = dichlorphenamide 10 μM + probenecid 100 μM, 1 min
[6] = dichlorphenamide 10 μM + probenecid 100 μM, 3 min
[7] = dichlorphenamide 10 μM + probenecid 100 μM, 10 min
[8] = dichlorphenamide 10 μM + probenecid 100 μM, control HEK293 cells, 1 min
[9] = dichlorphenamide 10 μM + probenecid 100 μM, control HEK293 cells, 3 min
[10] = dichlorphenamide 10 μM + probenecid 100 μM, control HEK293 cells, 10 min
[11] = dichlorphenamide 10 μM, incubation 1 min
[12] = dichlorphenamide 10 μM, incubation 3 min
[13] = dichlorphenamide 10 μM, incubation 10 min

For `Nc1ccc(C(=O)NCC(=O)O)cc1` [aminohippurate, p-aminohippuric acid], the “Fraction cleared by the kidneys from the renal blood stream in a single circulation (average)” value [1] is listed as 90%.

In the case of `NS(=O)(=O)c1cc(Cl)c(Cl)c(S(N)(=O)=O)c1` [Dichlorphenamide, 4,5-dichloro-1,3-benzenedisulfonamide], the “Substrate of OAT3 (conclusion from Tables 3 and 4)” value ([2]; HEK293 cells) is reported as “is a substrate of OAT3”, the Uptake ratio [2, 5] is reported as 0.987 and the Uptake ratio [2, 6] is reported as 1.00. It also gave an Uptake ratio [2, 7] of 1.24, an Uptake ratio ([2]; dichlorphenamide 10 μM, 1 min) of 2.26 and an Uptake ratio ([2]; dichlorphenamide 10 μM, 3 min) of 2.64. For the same molecule, the Uptake ratio ([2]; dichlorphenamide 10 μM, 10 min) was 2.75, the “Uptake (Average ± SD), OAT3” value [2, 5] was 123 ± 7 pmol/mg protein and the “Uptake (Average ± SD), OAT3” value [2, 6] was 126 ± 18 pmol/mg protein. For the same molecule, the “Uptake (Average ± SD), OAT3” value [2, 7] was 177 ± 16 pmol/mg protein, the “Uptake (Average ± SD), Control” value [2, 8] was 124 ± 13 pmol/mg protein and the “Uptake (Average ± SD), Control” value [2, 9] was 125 ± 5 pmol/mg protein. The “Uptake (Average ± SD), Control” value [2, 10] was 143 ± 41 pmol/mg protein, the “Uptake (Average ± SD), OAT3” value [2, 11] was 333 ± 24 pmol/mg protein and the “Uptake (Average ± SD), OAT3” value [2, 12] was 311 ± 29 pmol/mg protein. The “Uptake (Average ± SD), OAT3” value [2, 13] was 463 ± 27 pmol/mg protein, the “Uptake (Average ± SD), Control” value ([2]; dichlorphenamide 10 μM, control HEK293 cells, incubation 1 min) was 147 ± 47 pmol/mg protein and the “Uptake (Average ± SD), Control” value ([2]; dichlorphenamide 10 μM, control HEK293 cells, incubation 3 min) was 118 ± 3 pmol/mg protein. For the same molecule, the “Uptake (Average ± SD), Control” value ([2]; dichlorphenamide 10 μM, control HEK293 cells, incubation 10 min) was 169 ± 9 pmol/mg protein, the recovery at 10 μM ([2]; HEK293 cells expressing OAT3, pH 7.4, read-out: Recovery, OAT3) was 77.9% and the recovery at 10 μM ([2]; control HEK293 cells, pH 7.4, read-out: Recovery, Control) was 68.8%. The “Substrate of OAT1 (conclusion from Tables 1 and 2)” value ([3]; HEK293 cells) was “is a substrate of OAT1”, the Uptake ratio [3, 5] was 1.29 and the Uptake ratio [3, 6] was 1.11. For the same molecule, the Uptake ratio [3, 7] was 1.01, the Uptake ratio ([3]; dichlorphenamide 10 μM, 1 min) was 2.41 and the Uptake ratio ([3]; dichlorphenamide 10 μM, 3 min) was 2.39. The Uptake ratio ([3]; dichlorphenamide 10 μM, 10 min) was 2.23, the “Uptake (Average ± SD), OAT1” value [3, 5] was 54.4 ± 2.7 pmol/mg protein and the “Uptake (Average ± SD), OAT1” value [3, 6] was 135 ± 6 pmol/mg protein. For the same molecule, the “Uptake (Average ± SD), OAT1” value [3, 7] was 286 ± 17 pmol/mg protein, the “Uptake (Average ± SD), Control” value [3, 8] was 42.2 ± 2.4 pmol/mg protein and the “Uptake (Average ± SD), Control” value [3, 9] was 121 ± 8 pmol/mg protein. The “Uptake (Average ± SD), Control” value [3, 10] was 284 ± 19 pmol/mg protein, the “Uptake (Average ± SD), OAT1” value [3, 11] was 109 ± 2 pmol/mg protein and the “Uptake (Average ± SD), OAT1” value [3, 12] was 294 ± 14 pmol/mg protein. For the same molecule, the “Uptake (Average ± SD), OAT1” value [3, 13] was 591 ± 11 pmol/mg protein, the “Uptake (Average ± SD), Control” value ([3]; dichlorphenamide 10 μM, control HEK293 cells (vector only), incubation 1 min) was 45.4 ± 0.4 pmol/mg protein and the “Uptake (Average ± SD), Control” value ([3]; dichlorphenamide 10 μM, control HEK293 cells (vector only), incubation 3 min) was 123 ± 6 pmol/mg protein. For the same molecule, the “Uptake (Average ± SD), Control” value ([3]; dichlorphenamide 10 μM, control HEK293 cells (vector only), incubation 10 min) was 265 ± 8 pmol/mg protein, the recovery at 10 μM ([3]; HEK293 cells expressing OAT1, pH 7.4, read-out: Recovery, OAT1) was 98.5% and the recovery at 10 μM ([3]; control HEK293 cells (transfected with vector only), pH 7.4, read-out: Recovery, Control) was 95.3%.

In the case of `CCCN(CCC)S(=O)(=O)c1ccc(C(=O)O)cc1` [Probenecid], the “Background corrected uptake rate” value [4] is reported as 0.0184 pmol/mg/min, the “Uptake (Average ± SD), OAT3” value ([4]; OAT3-expressing HEK293 cells) is reported as 0.104 ± 0.006 pmol/mg protein and the “Uptake (Average ± SD), Control” value ([4]; control HEK293 cells) is reported as 0.0670 ± 0.0124 pmol/mg protein. It also gave an activity at 100 μM ([4]; human, HEK293 cells expressing OAT3 and control cells, pH 7.4, probe [3H]-Estrone-3-sulfate (50 nM), relative to solvent control, read-out: Percent of control) of 3.2%.
